Source: ChEMBL document CHEMBL1141382, “Studies leading to potent, dual inhibitors of Bcl-2 and Bcl-xL” (J Med Chem, 2007)

Assays:
[1] = molecular target: T1, Bcl-2-like protein 1 (Homo sapiens, UniProt Q07817); assay: Displacement of Bad-derived peptide from Bcl-xL by fluorescence polarization assay
[2] = molecular target: Apoptosis regulator Bcl-2 (Homo sapiens, UniProt P10415); assay: Displacement of Bax-derived peptide from Bcl2 by fluorescence polarization assay
[3] = molecular target: T1, Bcl-2-like protein 1; assay: Displacement of Bad-derived peptide from Bcl-xL by FPA in presence of 10% human serum

Chain of Apoptosis regulator Bcl-2 (P10415 whole entry): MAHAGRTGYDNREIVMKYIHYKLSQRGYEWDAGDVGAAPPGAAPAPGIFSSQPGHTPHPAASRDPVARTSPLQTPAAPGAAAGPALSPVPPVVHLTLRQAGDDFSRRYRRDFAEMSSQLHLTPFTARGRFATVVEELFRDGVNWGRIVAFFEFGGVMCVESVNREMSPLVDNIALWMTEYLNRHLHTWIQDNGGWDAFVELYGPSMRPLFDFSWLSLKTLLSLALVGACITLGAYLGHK
T1 sequence (Q07817 whole entry): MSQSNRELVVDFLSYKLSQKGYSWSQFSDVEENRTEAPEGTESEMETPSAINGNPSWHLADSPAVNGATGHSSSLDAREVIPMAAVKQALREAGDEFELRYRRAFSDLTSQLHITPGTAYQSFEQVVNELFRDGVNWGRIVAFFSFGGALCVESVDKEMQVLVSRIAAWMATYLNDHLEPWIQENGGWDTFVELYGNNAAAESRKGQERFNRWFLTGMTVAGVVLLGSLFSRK

Ki [1] [nM]	Ki [2] [nM]	IC50 [3] [nM]	SMILES
< 0.5	< 1	< 60	COC1(Cc2ccccc2-c2ccccc2)CCN(c2ccc(C(=O)NS(=O)(=O)c3ccc(N[C@H](CCN(C)C)CSc4ccccc4)c([N+](=O)[O-])c3)cc2)CC1
< 0.5	1	81	CN(C)CC[C@H](CSc1ccccc1)Nc1ccc(S(=O)(=O)NC(=O)c2ccc(N3CCN(Cc4ccccc4-c4cccnc4)CC3)cc2)cc1[N+](=O)[O-]
< 0.5	< 1	83	CN(C)CC[C@H](CSc1ccccc1)Nc1ccc(S(=O)(=O)NC(=O)c2ccc(N3CCC(=Cc4ccccc4-c4ccccc4)CC3)cc2)cc1[N+](=O)[O-]
< 0.5	< 1	85	CN(C)CC[C@H](CSc1ccccc1)Nc1ccc(S(=O)(=O)NC(=O)c2ccc(N3CCN(Cc4ccccc4C(F)(F)F)CC3)cc2)cc1[N+](=O)[O-]
< 0.5	< 1	< 60	CSc1ccccc1CN1CCN(c2ccc(C(=O)NS(=O)(=O)c3ccc(N[C@H](CCN(C)C)CSc4ccccc4)c([N+](=O)[O-])c3)cc2)CC1
0.6	3.5	370	CN(C)CC[C@H](CSc1ccccc1)Nc1ccc(S(=O)(=O)NC(=O)c2ccc(N3CCN(Cc4ccccc4NC4CCCCC4)CC3)cc2)cc1[N+](=O)[O-]
< 0.5	2.5	750	CN(C)CC[C@H](CSc1ccccc1)Nc1ccc(S(=O)(=O)NC(=O)c2ccc(N3CCC(=Cc4ccccc4F)CC3)cc2)cc1[N+](=O)[O-]
4.4	35.2	–	CN(C)CC[C@H](CSc1ccccc1)Nc1ccc(S(=O)(=O)NC(=O)c2ccc(N3CCC4(CC3)CC(c3ccccc3)=NO4)cc2)cc1[N+](=O)[O-]
< 0.5	< 1	61	CN(C)CC[C@H](CSc1ccccc1)Nc1ccc(S(=O)(=O)NC(=O)c2ccc(N3CCN(Cc4ccccc4C4CCCCC4)CC3)cc2)cc1[N+](=O)[O-]
< 0.5	0.7	700	CN(C)CC[C@H](CSc1ccccc1)Nc1ccc(S(=O)(=O)NC(=O)c2ccc(N3CCC(=Cc4ccccc4Cl)CC3)cc2)cc1[N+](=O)[O-]
1.3	68	2800	CN(C)CC[C@H](CSc1ccccc1)Nc1ccc(S(=O)(=O)NC(=O)c2ccc(N3CCC(=Cc4cccnc4)CC3)cc2)cc1[N+](=O)[O-]
< 0.5	< 1	< 60	CN(C)CC[C@H](CSc1ccccc1)Nc1ccc(S(=O)(=O)NC(=O)c2ccc(N3CCN(Cc4ccccc4N4CCOCC4)CC3)cc2)cc1[N+](=O)[O-]
2.6	39.8	350	CN(C)CC[C@H](CSc1ccccc1)Nc1ccc(S(=O)(=O)NC(=O)c2ccc(N3CCN(Cc4ccccc4)CC3)cc2)cc1[N+](=O)[O-]
< 1	61.9	–	CN(C)CC[C@H](CSc1ccccc1)Nc1ccc(S(=O)(=O)NC(=O)c2ccc(N3CCN(C(=O)c4ccccc4)CC3)cc2)cc1[N+](=O)[O-]
< 0.5	3.2	80	COc1ccccc1CN1CCN(c2ccc(C(=O)NS(=O)(=O)c3ccc(N[C@H](CCN(C)C)CSc4ccccc4)c([N+](=O)[O-])c3)cc2)CC1
2.5	300	–	CN(C)CC[C@H](CSc1ccccc1)Nc1ccc(S(=O)(=O)NC(=O)c2ccc(N3CCN(C(=O)Nc4ccccc4)CC3)cc2)cc1[N+](=O)[O-]

More lines, now with the values behind:

SMILES	Ki [1] [nM]	Ki [2] [nM]	IC50 [3] [nM]
COC1(CC(C)(C)C)CCN(c2ccc(C(=O)NS(=O)(=O)c3ccc(N[C@H](CCN(C)C)CSc4ccccc4)c([N+](=O)[O-])c3)cc2)CC1	4.6	16	440
COC1(Cc2ccc(-c3ccccc3)cc2)CCN(c2ccc(C(=O)NS(=O)(=O)c3ccc(N[C@H](CCN(C)C)CSc4ccccc4)c([N+](=O)[O-])c3)cc2)CC1	0.9	< 1	160
CN(C)CC[C@H](CSc1ccccc1)Nc1ccc(S(=O)(=O)NC(=O)c2ccc(N3CCC(=Cc4ccccn4)CC3)cc2)cc1[N+](=O)[O-]	3.6	46	700
CN(C)CC[C@H](CSc1ccccc1)Nc1ccc(S(=O)(=O)NC(=O)c2ccc(N3CCC(=Cc4ccc(C(F)(F)F)cc4)CC3)cc2)cc1[N+](=O)[O-]	1.4	9.4	1300
COc1ccccc1CC1(OC)CCN(c2ccc(C(=O)NS(=O)(=O)c3ccc(N[C@H](CCN(C)C)CSc4ccccc4)c([N+](=O)[O-])c3)cc2)CC1	1.1	1.6	75
CN(C)CC[C@H](CSc1ccccc1)Nc1ccc(S(=O)(=O)NC(=O)c2ccc(N3CCC(=Cc4ccccc4C#N)CC3)cc2)cc1[N+](=O)[O-]	< 0.5	13	520
COC1(CC(C)C)CCN(c2ccc(C(=O)NS(=O)(=O)c3ccc(N[C@H](CCN(C)C)CSc4ccccc4)c([N+](=O)[O-])c3)cc2)CC1	6.1	56	360
COC1(Cc2ccccc2)CCN(c2ccc(C(=O)NS(=O)(=O)c3ccc(N[C@H](CCN(C)C)CSc4ccccc4)c([N+](=O)[O-])c3)cc2)CC1	1.8	8.1	150
CN(C)CC[C@H](CSc1ccccc1)Nc1ccc(S(=O)(=O)NC(=O)c2ccc(N3CCC(=Cc4ccc(Cl)cc4)CC3)cc2)cc1[N+](=O)[O-]	< 0.5	2.1	510
CCCCCC1(OC)CCN(c2ccc(C(=O)NS(=O)(=O)c3ccc(N[C@H](CCN(C)C)CSc4ccccc4)c([N+](=O)[O-])c3)cc2)CC1	1.3	20	312
COC1(CC2CCCCC2)CCN(c2ccc(C(=O)NS(=O)(=O)c3ccc(N[C@H](CCN(C)C)CSc4ccccc4)c([N+](=O)[O-])c3)cc2)CC1	0.8	6.6	300
COC1(Cc2cccc(Cl)c2)CCN(c2ccc(C(=O)NS(=O)(=O)c3ccc(N[C@H](CCN(C)C)CSc4ccccc4)c([N+](=O)[O-])c3)cc2)CC1	< 0.5	1.8	170
COC1(Cc2ccccc2C)CCN(c2ccc(C(=O)NS(=O)(=O)c3ccc(N[C@H](CCN(C)C)CSc4ccccc4)c([N+](=O)[O-])c3)cc2)CC1	< 0.5	1.4	71
COC1(Cc2ccc(Cl)cc2)CCN(c2ccc(C(=O)NS(=O)(=O)c3ccc(N[C@H](CCN(C)C)CSc4ccccc4)c([N+](=O)[O-])c3)cc2)CC1	0.9	2.7	200
COC1(Cc2ccccc2F)CCN(c2ccc(C(=O)NS(=O)(=O)c3ccc(N[C@H](CCN(C)C)CSc4ccccc4)c([N+](=O)[O-])c3)cc2)CC1	0.9	3.1	79
CN(C)CC[C@H](CSc1ccccc1)Nc1ccc(S(=O)(=O)NC(=O)c2ccc(N3CCC(=Cc4ccccc4C(F)(F)F)CC3)cc2)cc1[N+](=O)[O-]	< 0.5	2	300
COc1ccccc1C=C1CCN(c2ccc(C(=O)NS(=O)(=O)c3ccc(N[C@H](CCN(C)C)CSc4ccccc4)c([N+](=O)[O-])c3)cc2)CC1	0.6	2	760
CC1OC2(CCN(c3ccc(C(=O)NS(=O)(=O)c4ccc(N[C@H](CCN(C)C)CSc5ccccc5)c([N+](=O)[O-])c4)cc3)CC2)N(Cc2ccccc2)C1=O (stereo partly drawn)	3.7	9.6	–
CN(C)CC[C@H](CSc1ccccc1)Nc1ccc(S(=O)(=O)NC(=O)c2ccc(N3CCC(=Cc4ccc(F)cc4)CC3)cc2)cc1[N+](=O)[O-]	< 0.5	3.4	520
CN(C)CC[C@H](CSc1ccccc1)Nc1ccc(S(=O)(=O)NC(=O)c2ccc(N3CCC4(CC3)CC(Cc3ccccc3)=NO4)cc2)cc1[N+](=O)[O-]	1.7	6.5	–
CC1(C)CCN(c2ccc(C(=O)NS(=O)(=O)c3ccc(NC(C)(C)CSc4ccccc4)c([N+](=O)[O-])c3)cc2)CC1	0.8	–	360
COC1(Cc2ccccc2Cl)CCN(c2ccc(C(=O)NS(=O)(=O)c3ccc(N[C@H](CCN(C)C)CSc4ccccc4)c([N+](=O)[O-])c3)cc2)CC1	< 0.5	< 1	62
COC1(Cc2ccccc2Br)CCN(c2ccc(C(=O)NS(=O)(=O)c3ccc(N[C@H](CCN(C)C)CSc4ccccc4)c([N+](=O)[O-])c3)cc2)CC1	< 0.5	1.5	< 60
Cc1ccc(S(=O)(=O)N2CCN(c3ccc(C(=O)NS(=O)(=O)c4ccc(N[C@H](CCN(C)C)CSc5ccccc5)c([N+](=O)[O-])c4)cc3)CC2)cc1	4	6.1	–
